Data as given in patent US20180344641A1, “MESOPOROUS SILICA NANOPARTICLES AND SUPPORTED LIPID BI-LAYER NANOPARTICLES FOR BIOMEDICAL APPLICATIONS” (priority 2015, published 2018).

Tests used:
[1] = tested on: REH cells; experiment: Cell viability, CellTiter-Glo 2.0 Assay; assay type: cell-based, human; details: free GEM 0 to 30 uM 1 hour, viability at 24 hours
Method: (§1) Whole human blood was acquired from healthy donors with informed consent and stabilized in K2EDTA tubes (BD Biosciences). hRBCs were purified following reported procedure (Liao et al., 2011), then incubated with either bare mMSNs or protocells (25, 50, 100, 200, and 400 μg/mL) at 37° C. After 3 hours of exposure, samples were centrifuged at 300 g for 3 minutes, then 100 μL of supernatant from each sample was transferred to a 96-well plate. Hemoglobin absorbance was measured using a BioTek microplate reader (Winooski, Vt.) at 541 nm. The percent hemolysis of each sample was quantified using a reported equation (Liao et al., 2011). In addition, we examined the biocompatibility of anti-EGFR targeted protocells in vitro. We incubated about 1.5×10^5 cells/mL of REH and REH+EGFR cell lines with either 12.5, 25, 50, 100, and 200 μg/mL of anti-EGFR targeted protocells in complete medium for 1 hour at 37° C. Cells were washed twice in complete media and transferred to a 96-well plate for 24 hours at 37° C. Cell viability was assessed by CellTiter-Glo® 2.0 Assay as measured by BioTek microplate reader. The cell viability was calculated as a percentage of non-protocell treated sample.
(§2) […] Cell viability was assessed by CellTiter-Glo® 2.0 Assay as measured by BioTek microplate reader. The cell viability was calculated as a percentage of non-protocell treated sample.

[2] = tested on: REH+EGFR cells; experiment: Cell viability, CellTiter-Glo 2.0 Assay; assay type: cell-based, human; details: free GEM 0 to 30 uM 1 hour, viability at 24 hours
Method: as §1, §2

[3] = Federico et al., 2012; cited from earlier work

Question: With `Nc1ccn([C@@H]2O[C@H](CO)[C@@H](O)C2(F)F)c(=O)n1` [GEM, Gemcitabine] as the compound, how does the “viability of REH cells” value [1] read?
Answer: The value was “Loss in cell viability of REH and REH+EGFR cells”.

Question: What about the “viability of REH+EGFR cells” value [2] of the same compound?
Answer: The value was “Loss in cell viability of REH and REH+EGFR cells”.

Question: What about the plasma half-life [3] of the same compound?
Answer: Its plasma half-life is 8 to 17 min.
